Assay results from patent US20250195530A1, “POLQ INHIBITORS” (ASTRAZENECA AB, priority 2022, published 2025).

Experiments:
DLD-1 BRCA2−/− cells = assay: Homologous recombination synthetic lethal inhibition of proliferation, DLD-1 BRCA2-/- (Cell Titre Glo 3D); type: cell-based; details: mean; for IC50: Homo sapiens, DLD-1, DLD-1 BRCA2 −/−, read-out: POLQ PD Prolif Lumin BRCA2 −/− mean pIC50 (converted)
How it was run: (§1)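 Isogenic DLD-1 pair; BRCA2−/− seeded 3,000 cells/mL and read day 12, wt seeded 1,500 cells/mL and read day 7. 10-pt titration (top 10 μM, 3-fold), re-fed with compound day 6, 37 °C/5% CO2. CTG 3D endpoint; IC50 at 50% signal loss.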

DLD-1 cells = assay: Inhibition of proliferation, DLD-1 BRCA2 wt control (Cell Titre Glo 3D); type: cell-based; details: mean; for IC50: Homo sapiens, DLD-1, DLD1 BRCA2 wt, read-out: POLQ PD Prolif Lumin DLD1 mean pIC50 (converted)
How it was run: as §1

| SMILES | POLQ PD Prolif Lumin BRCA2 −/− mean pIC50 (DLD-1 BRCA2−/− cells; DLD-1 BRCA2 −/−) | POLQ PD Prolif Lumin DLD1 mean pIC50 (DLD-1 cells; DLD1 BRCA2 wt) | IC50 (DLD-1 BRCA2−/− cells) | IC50 (DLD-1 cells) |
| --- | --- | --- | --- | --- |
| COc1ccc(C)cc1Cn1c(-c2cccc(O[C@H]3CC[C@H](C(=O)O)CC3)c2Cl)nc2c(OC3(C)CC3)ncnc21 [Example U91, (1r,4r)-4-(2-chloro-3-(9-(2-methoxy-5-methylbenzyl)-6-(1-methylcyclopropoxy)-9H-purin-8-yl)phenoxy)cyclohexane-1-carboxylic acid] | 7.8 | <5.0 | – | – |
| COc1ccc(C)cc1Cn1c(-c2cccc(OCCCOCC(=O)O)c2Cl)nc2c(OC3(C)CC3)ncnc21 [Example U93, 2-(3-(2-chloro-3-(9-(2-methoxy-5-methylbenzyl)-6-(1-methylcyclopropoxy)-9H-purin-8-yl)phenoxy)propoxy)acetic acid] | – | – | 12.6 nM | > 10 µM |
| COc1ccc(C)cc1Cn1c(-c2ccc(OCC[C@H](C)C(=O)O)cc2Cl)nc2c(OC3(C)CC3)ncnc21 [Example U94, (S)-4-(3-chloro-4-(9-(2-methoxy-5-methylbenzyl)-6-(1-methylcyclopropoxy)-9H-purin-8-yl)phenoxy)-2-methylbutanoic acid] | – | – | 50.1 nM | > 10 µM |
| C[C@H](CCOc1cccc(-c2nc3c(OC4(C)CC4)ncnc3n2Cc2cc(Cl)ccc2C#N)c1Cl)C(=O)O [Example U95, (R)-4-(2-chloro-3-(9-(5-chloro-2-cyanobenzyl)-6-(1-methylcyclopropoxy)-9H-purin-8-yl)phenoxy)-2-methylbutanoic acid] | – | – | 2 nM | > 10 µM |
| CC1(Oc2ncnc3c2nc(-c2cccc(OCCC(=O)O)c2Cl)n3Cc2cc(Cl)ccc2C#N)CC1 [Example U96, 3-(2-chloro-3-(9-(5-chloro-2-cyanobenzyl)-6-(1-methylcyclopropoxy)-9H-purin-8-yl)phenoxy)propanoic acid] | – | – | 10 nM | > 10 µM |
| CC1(Oc2ncnc3c2nc(-c2cccc(OCCCOCC(=O)O)c2Cl)n3Cc2cc(Cl)ccc2C#N)CC1 [Example U98, 2-(3-(2-chloro-3-(9-(5-chloro-2-cyanobenzyl)-6-(1-methylcyclopropoxy)-9H-purin-8-yl)phenoxy)propoxy)acetic acid] | – | – | 31.6 nM | > 10 µM |
